{
  "source": "PubChem BioAssay (NCI)",
  "test_in_all_cases": "DTP human tumour cell line panel, 48 h",
  "key": {"[1]": {"tested_on": "A549 NSCLC"}, "[2]": {"tested_on": "HT29 colon"}, "[3]": {"tested_on": "NCI-H226 lung"}, "[4]": {"tested_on": "NCI-H522 lung"}, "[5]": {"tested_on": "RXF 393 renal"}, "[6]": {"tested_on": "SK-MEL-5 melanoma"}, "[7]": {"tested_on": "SNB-19 CNS"}, "[8]": {"tested_on": "BT-549 breast"}, "[9]": {"tested_on": "HCC-2998 colon"}, "[10]": {"tested_on": "T-47D breast"}},
  "note": "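Briefly, cells in 96-well plates were exposed to five compound concentrations for 48 h, and endpoints were estimated by linear interpolation. Here, GI50 denotes the concentration required for 50% inhibition of growth. The concentration for full growth arrest is given as TGI.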",
  "data": [
    {"compound": "C[N+](C)(C)CC1CCC(C[N+](C)(C)C)C1=NO", "note": "(stereo not drawn)", "values": [
      {"measurement": "TGI", "setting": "[1]", "result": "> 100", "unit": "µM"},
      {"measurement": "TGI", "setting": "[2]", "result": "> 100", "unit": "µM"},
      {"measurement": "TGI", "setting": "[3]", "result": "> 100", "unit": "µM"},
      {"measurement": "TGI", "setting": "[4]", "result": "> 100", "unit": "µM"},
      {"measurement": "TGI", "setting": "[5]", "result": "> 100", "unit": "µM"},
      {"measurement": "TGI", "setting": "[6]", "result": "> 100", "unit": "µM"},
      {"measurement": "TGI", "setting": "[7]", "result": "> 100", "unit": "µM"}
    ]},
    {"compound": "CCc1ccc2c(c1)C(=O)c1c-2n(CCCN)c(=O)c2cc(OC)c(OC)cc12", "values": [
      {"measurement": "GI50", "setting": "[8]", "result": 1.65, "unit": "µM"},
      {"measurement": "TGI", "setting": "[8]", "result": 3.17, "unit": "µM"},
      {"measurement": "GI50", "setting": "[9]", "result": 1.63, "unit": "µM"},
      {"measurement": "TGI", "setting": "[9]", "result": 3.05, "unit": "µM"},
      {"measurement": "GI50", "setting": "[2]", "result": 1.56, "unit": "µM"},
      {"measurement": "TGI", "setting": "[2]", "result": 2.98, "unit": "µM"},
      {"measurement": "GI50", "setting": "[3]", "result": 21, "unit": "µM"},
      {"measurement": "TGI", "setting": "[3]", "result": 42.5, "unit": "µM"},
      {"measurement": "GI50", "setting": "[4]", "result": 1.59, "unit": "µM"},
      {"measurement": "TGI", "setting": "[4]", "result": 3.38, "unit": "µM"},
      {"measurement": "GI50", "setting": "[6]", "result": 1.44, "unit": "µM"},
      {"measurement": "TGI", "setting": "[6]", "result": 2.8, "unit": "µM"},
      {"measurement": "GI50", "setting": "[7]", "result": 1.85, "unit": "µM"},
      {"measurement": "TGI", "setting": "[7]", "result": 3.46, "unit": "µM"}
    ]},
    {"compound": "COC(=O)C(=O)C(C(=O)C(=O)Nc1ccc([N+](=O)[O-])cc1)c1nc2ccccc2[nH]c1=O", "note": "(stereo not drawn)", "values": [
      {"measurement": "TGI", "setting": "[1]", "result": "> 100", "unit": "µM"},
      {"measurement": "TGI", "setting": "[2]", "result": "> 100", "unit": "µM"},
      {"measurement": "TGI", "setting": "[3]", "result": "> 100", "unit": "µM"},
      {"measurement": "TGI", "setting": "[4]", "result": "> 100", "unit": "µM"},
      {"measurement": "TGI", "setting": "[5]", "result": "> 100", "unit": "µM"},
      {"measurement": "TGI", "setting": "[6]", "result": "> 100", "unit": "µM"},
      {"measurement": "TGI", "setting": "[7]", "result": "> 100", "unit": "µM"}
    ]},
    {"compound": "CC(C)(O)C1COC2=C1C(=O)c1ccccc1C2=O", "note": "(stereo not drawn)", "values": [
      {"measurement": "TGI", "setting": "[1]", "result": "> 100", "unit": "µM"},
      {"measurement": "TGI", "setting": "[8]", "result": 42.9, "unit": "µM"},
      {"measurement": "TGI", "setting": "[9]", "result": "> 100", "unit": "µM"},
      {"measurement": "TGI", "setting": "[2]", "result": "> 100", "unit": "µM"},
      {"measurement": "TGI", "setting": "[3]", "result": "> 100", "unit": "µM"},
      {"measurement": "TGI", "setting": "[4]", "result": "> 100", "unit": "µM"},
      {"measurement": "TGI", "setting": "[6]", "result": 57.4, "unit": "µM"},
      {"measurement": "TGI", "setting": "[7]", "result": "> 100", "unit": "µM"},
      {"measurement": "TGI", "setting": "[10]", "result": "> 100", "unit": "µM"}
    ]},
    {"compound": "Cc1cc(N(CCC#N)CCC#N)ccc1/C=C(\\NC(=O)/C=C/c1ccccc1)C(=O)Nc1ccccc1Cl", "values": [
      {"measurement": "TGI", "setting": "[1]", "result": "> 100", "unit": "µM"},
      {"measurement": "TGI", "setting": "[9]", "result": "> 100", "unit": "µM"},
      {"measurement": "TGI", "setting": "[2]", "result": "> 100", "unit": "µM"},
      {"measurement": "TGI", "setting": "[3]", "result": "> 100", "unit": "µM"},
      {"measurement": "TGI", "setting": "[5]", "result": "> 100", "unit": "µM"},
      {"measurement": "TGI", "setting": "[6]", "result": "> 100", "unit": "µM"},
      {"measurement": "TGI", "setting": "[7]", "result": "> 100", "unit": "µM"}
    ]},
    {"compound": "Cc1nc2c(C)ccc([N+](=O)[O-])c2c(NCCCN(C)C)c1C", "values": [
      {"measurement": "TGI", "setting": "[1]", "result": "> 100", "unit": "µM"},
      {"measurement": "TGI", "setting": "[9]", "result": "> 55.4", "unit": "µM"},
      {"measurement": "TGI", "setting": "[2]", "result": "> 70.8", "unit": "µM"},
      {"measurement": "TGI", "setting": "[3]", "result": "> 100", "unit": "µM"},
      {"measurement": "TGI", "setting": "[4]", "result": "> 100", "unit": "µM"},
      {"measurement": "TGI", "setting": "[5]", "result": "> 100", "unit": "µM"},
      {"measurement": "TGI", "setting": "[6]", "result": 27.2, "unit": "µM"},
      {"measurement": "TGI", "setting": "[7]", "result": "> 100", "unit": "µM"},
      {"measurement": "TGI", "setting": "[10]", "result": "> 100", "unit": "µM"}
    ]},
    {"compound": "COc1cc2c(c(OC)c1OC)-c1cc(I)c(O)cc1[C@@H](NC(C)=O)CC2", "values": [
      {"measurement": "GI50", "setting": "[1]", "result": 0.0695, "unit": "µM"},
      {"measurement": "TGI", "setting": "[1]", "result": "> 40.1", "unit": "µM"},
      {"measurement": "GI50", "setting": "[8]", "result": 0.134, "unit": "µM"},
      {"measurement": "TGI", "setting": "[8]", "result": 2.95, "unit": "µM"},
      {"measurement": "GI50", "setting": "[9]", "result": 0.0655, "unit": "µM"},
      {"measurement": "TGI", "setting": "[9]", "result": 3, "unit": "µM"},
      {"measurement": "GI50", "setting": "[2]", "result": 0.036, "unit": "µM"},
      {"measurement": "TGI", "setting": "[2]", "result": 10.7, "unit": "µM"},
      {"measurement": "GI50", "setting": "[3]", "result": 0.299, "unit": "µM"},
      {"measurement": "TGI", "setting": "[3]", "result": 99.2, "unit": "µM"},
      {"measurement": "GI50", "setting": "[4]", "result": 0.0484, "unit": "µM"},
      {"measurement": "TGI", "setting": "[4]", "result": "> 100", "unit": "µM"},
      {"measurement": "GI50", "setting": "[5]", "result": 0.0496, "unit": "µM"},
      {"measurement": "TGI", "setting": "[5]", "result": "> 100", "unit": "µM"},
      {"measurement": "GI50", "setting": "[6]", "result": 0.0358, "unit": "µM"},
      {"measurement": "TGI", "setting": "[6]", "result": 0.244, "unit": "µM"},
      {"measurement": "GI50", "setting": "[7]", "result": 0.0679, "unit": "µM"},
      {"measurement": "TGI", "setting": "[7]", "result": "> 100", "unit": "µM"}
    ]},
    {"compound": "C=CCNC(=S)NNC(=O)c1c(C)nc2sccn12", "values": [
      {"measurement": "TGI", "setting": "[1]", "result": "> 100", "unit": "µM"},
      {"measurement": "TGI", "setting": "[9]", "result": "> 100", "unit": "µM"},
      {"measurement": "TGI", "setting": "[2]", "result": "> 100", "unit": "µM"},
      {"measurement": "TGI", "setting": "[3]", "result": "> 100", "unit": "µM"},
      {"measurement": "TGI", "setting": "[4]", "result": "> 100", "unit": "µM"},
      {"measurement": "TGI", "setting": "[5]", "result": "> 100", "unit": "µM"},
      {"measurement": "TGI", "setting": "[6]", "result": "> 100", "unit": "µM"},
      {"measurement": "TGI", "setting": "[7]", "result": "> 100", "unit": "µM"}
    ]},
    {"compound": "CC[C@H](C)[C@H](NC(=O)[C@H]1CCCCN1C)C(=O)N(C)[C@H](CCc1nc(C(=O)N[C@@H](Cc2ccccc2)C[C@H](C)C(=O)O)cs1)C(C)C", "values": [
      {"measurement": "GI50", "setting": "[1]", "result": 2.98, "unit": "µM"},
      {"measurement": "TGI", "setting": "[1]", "result": "> 25", "unit": "µM"},
      {"measurement": "GI50", "setting": "[8]", "result": 0.126, "unit": "µM"},
      {"measurement": "TGI", "setting": "[8]", "result": 6.94, "unit": "µM"},
      {"measurement": "GI50", "setting": "[9]", "result": 0.632, "unit": "µM"},
      {"measurement": "TGI", "setting": "[9]", "result": "> 25", "unit": "µM"},
      {"measurement": "GI50", "setting": "[2]", "result": 0.123, "unit": "µM"},
      {"measurement": "TGI", "setting": "[2]", "result": "> 25", "unit": "µM"},
      {"measurement": "GI50", "setting": "[3]", "result": 8.83, "unit": "µM"},
      {"measurement": "TGI", "setting": "[3]", "result": "> 25", "unit": "µM"},
      {"measurement": "GI50", "setting": "[4]", "result": 0.0351, "unit": "µM"},
      {"measurement": "TGI", "setting": "[4]", "result": 0.579, "unit": "µM"},
      {"measurement": "GI50", "setting": "[6]", "result": 0.0875, "unit": "µM"},
      {"measurement": "TGI", "setting": "[6]", "result": 3.24, "unit": "µM"},
      {"measurement": "GI50", "setting": "[7]", "result": 0.197, "unit": "µM"},
      {"measurement": "TGI", "setting": "[7]", "result": "> 25", "unit": "µM"}
    ]},
    {"compound": "COc1cc2c(oc(=O)c3c4occc4cc(OC)c23)c2cccc(O)c12", "values": [
      {"measurement": "TGI", "setting": "[1]", "result": "> 100", "unit": "µM"},
      {"measurement": "TGI", "setting": "[9]", "result": "> 100", "unit": "µM"},
      {"measurement": "TGI", "setting": "[2]", "result": "> 100", "unit": "µM"},
      {"measurement": "TGI", "setting": "[3]", "result": "> 100", "unit": "µM"},
      {"measurement": "TGI", "setting": "[4]", "result": "> 100", "unit": "µM"},
      {"measurement": "TGI", "setting": "[5]", "result": "> 100", "unit": "µM"},
      {"measurement": "TGI", "setting": "[6]", "result": "> 100", "unit": "µM"},
      {"measurement": "TGI", "setting": "[7]", "result": "> 100", "unit": "µM"}
    ]}
  ]
}
